Common to all, as to assay type: biochemical
The target of assay [1] is T1, IDH1 (isocitrate dehydrogenase 1) (Homo sapiens, UniProt O75874).
T1 construct: homodimeric (2 × 47 kDa)
In words: electrochemical turnover (cyclic voltammetry) with nanoconfined purified enzyme.

For assay [2], the target named is T2, IDH1 R132H (isocitrate dehydrogenase 1) (Homo sapiens, UniProt O75874, R132H).
T2 construct: homodimeric (2 × 47 kDa)
The description is as above.

Assay [3] has as its target T1, IDH1 (isocitrate dehydrogenase 1). Nature of the assay: bidirectional cyclic voltammetry of 2OG/isocitrate interconversion with CO2 supplied by carbonic anhydrase.

T1 sequence (O75874 2-414): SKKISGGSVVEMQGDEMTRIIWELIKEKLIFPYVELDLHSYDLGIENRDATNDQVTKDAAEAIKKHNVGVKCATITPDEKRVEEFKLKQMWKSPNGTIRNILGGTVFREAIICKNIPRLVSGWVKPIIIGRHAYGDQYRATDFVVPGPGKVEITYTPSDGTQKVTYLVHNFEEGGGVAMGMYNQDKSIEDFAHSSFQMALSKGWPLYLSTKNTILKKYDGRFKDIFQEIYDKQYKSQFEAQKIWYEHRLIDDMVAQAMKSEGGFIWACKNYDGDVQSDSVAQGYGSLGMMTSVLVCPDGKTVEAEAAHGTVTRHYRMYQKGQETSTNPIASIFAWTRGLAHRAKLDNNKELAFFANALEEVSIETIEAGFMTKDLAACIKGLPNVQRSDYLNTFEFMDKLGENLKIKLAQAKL
T2 sequence (O75874 2-414 R132H): as the sequence (O75874 2-414) above, with R131H counted along it

For `O=C(O)CC(C(=O)O)C(O)C(=O)O` (stereo not drawn) [isocitrate], in assay [1], the “electrochemical turnover (cyclic voltammetry) with nanoconfined purified enzyme” value was “IDH1 (Figure 1A, B) is an excellent catalyst for isocitrate oxidation”. Turning to `O=C(O)CCC(=O)C(=O)O` [2OG, 2-oxoglutarate], the “electrochemical turnover (cyclic voltammetry) with nanoconfined purified enzyme” value in assay [2] is reported as “R132H-catalyzed 2OG reduction (Figure 1C, D) is much slower, manifesting low currents”. Further, the “bidirectional cyclic voltammetry of 2OG/isocitrate interconversion with CO2 supp” value in assay [3] was “Cyclic voltammetry measuring bidirectionality of IDH1-catalyzed 2OG/isocitrate interconversion at different 2OG/isocitrate ratios”.

(Values after paper PMC8273889, “Exploiting Electrode Nanoconfinement to Investigate the Catalytic Properties of Isocitrate Dehydrogenase (IDH1) and a Cancer-Associated Variant” (The Journal of Physical Chemistry Letters, 2021).)
